Measurements taken from patent US7507806B2, “Nucleic acid sequences of human Rif1” (The Rockefeller University, priority 2004, dated 2009).

Assays:
Type in all cases: cell-based, human
Rif1 foci [1] = experiment: UV-induced Rif1 foci by indirect immunofluorescence; conditions: aphidicolin after the UV irradiation
Experimental: (§1) For IR treatment, cells were exposed to gamma(λ)-irradiation using a Cs^137 source at a rate of 7.7 Gray/min in 6 cm dishes. For UV radiation, cells were washed with PBS and exposed to 25 J/m^2 UV (265 nm) radiation in a Stratalinker (Stratagene) without a lid. After UV radiation, cells were incubated in media until harvest. For immunoblotting as described in FIG. 2B, cells were harvested 1 hr post-UV. MMS and etoposide (0.01% w/v and 50 μg/ml, respectively) were added to the media and cells were incubated for 1 hr before harvesting.
(§2) To stain cells for immunofluorescence, tissue culture cells plated on dishes with coverslips were washed twice with PBS, fixed with 2% paraformaldehyde in PBS (stored at −20° C.) for 10 minutes at room temperature (RT), washed twice with PBS and permeabilized with 0.5% NP-40 in PBS for 10 minutes at RT and washed three times with PBS. Cells were processed immediately or stored at 4° C. wrapped in PBS with sodium azide. […]

53BP1 foci = 53BP1 foci by indirect immunofluorescence after IR or UV; conditions: aphidicolin after the UV irradiation
Experimental: as §1, §2

Rif1 foci [2] = experiment: Rif1 foci after drug treatment, immunofluorescence; conditions: MMS 0.01% w/v, etoposide 50 μg/ml, 1 hr; hydroxyurea prolonged incubation
Experimental: as §1
To stain cells for immunofluorescence, tissue culture cells plated on dishes with coverslips were washed twice with PBS, fixed with 2% paraformaldehyde in PBS (stored at −20° C.) for 10 minutes at room temperature (RT), washed twice with PBS and permeabilized with 0.5% NP-40 in PBS for 10 minutes at RT and washed three times with PBS. Cells were processed immediately or stored at 4° C. wrapped in PBS with sodium azide. Coverslips were placed on parafilm in a humidified tray and blocked with PBG (0.2% (w/v) cold water fish gelatin (Sigma), 0.5% (w/v) BSA (Sigma) in PBS (stored at −20° C.) for 30 minutes at RT. Cells were then incubated with primary antibody diluted in PBG for 3 hours at RT, washed three times with PBG for 5 minutes at RT, incubated with secondary antibody diluted 1:100 in PBG for 40 minutes at RT, washed three times with PBG for 5 minutes at RT (with the last wash containing DAPI ([…]). Coverslips were then washed twice with PBS and mounted on glass slides in mounting media and sealed with nail polish.

SMILES | Rif1 foci after UV (Rif1 foci [1]) | 53BP1 foci after UV (53BP1 foci) | Rif1 foci formation after treatment (Rif1 foci [2])
C[C@@]1(CO)[C@H](O)CC[C@@]2(C)[C@H]1CC[C@H]1C[C@@H]3C[C@@]12CC[C@]3(O)CO [Aphidicolin] | fail to form Rif1 foci after UV | still detectable | –
COS(C)(=O)=O [MMS] | – | – | forms foci
COc1cc([C@@H]2c3cc4c(cc3[C@@H](O[C@@H]3O[C@@H]5CO[C@@H](C)O[C@H]5[C@H](O)[C@H]3O)[C@H]3COC(=O)[C@H]23)OCO4)cc(OC)c1O [etoposide] | – | – | forms foci
NC(=O)NO [hydroxyurea] | – | – | forms foci
